Assay results reported in patent US20240101572A1, “DIHYDROOXADIAZINONE COMPOUND AND PHARMACEUTICAL USE THEREOF” (Japan Tobacco Inc., priority 2022, published 2024).
Where two headings read alike, the source gives them in different places.

Columns and labels:
full-length human PLD2 = full-length human PLD2 (Homo sapiens (Human), UniProt O14939); experiment: Evaluation of human PLD2 enzyme inhibitory activity (Amplex Red / choline oxidase fluorescence); format: biochemical
Procedure, shortened: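 Released choline was read by Amplex Red fluorescence coupled to choline oxidase and HRP after a 60 min room-temperature reaction. Substrate was diheptanoyl phosphatidylcholine, added as a 6 mmol/L solution, and enzyme was FLAG-tagged full-length human PLD2 from Expi293F, added as a 6 nmol/L solution. Buffer was 50 mM HEPES pH 7.5 with 5% final DMSO.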

full-length human PLD1 = full-length human PLD1 (Homo sapiens (Human), UniProt Q13393); experiment: Evaluation of human PLD1 enzyme inhibitory activity (Amplex Red / choline oxidase fluorescence); format: biochemical
Procedure, shortened: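 Fluorescence read-out couples choline to Amplex Red via choline oxidase and peroxidase after a 60 min room-temperature reaction. Enzyme: FLAG-tagged full-length human PLD1 from Expi293F cells, anti-FLAG purified; substrate diheptanoyl phosphatidylcholine; HEPES pH 7.5 assay buffer with 0.01% NP-40, 0.1% BSA, 5% DMSO final.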

[1] = full-length human PLD2 enzyme, read-out: PLD2 IC50
[2] = full-length human PLD1 enzyme, read-out: PLD1 IC50
[3] = read-out: inhibition rate of PLD2 at 10 μM compound
[4] = read-out: inhibition rate of PLD1 at 10 μM compound

Chain of full-length human PLD2 (O14939 whole entry): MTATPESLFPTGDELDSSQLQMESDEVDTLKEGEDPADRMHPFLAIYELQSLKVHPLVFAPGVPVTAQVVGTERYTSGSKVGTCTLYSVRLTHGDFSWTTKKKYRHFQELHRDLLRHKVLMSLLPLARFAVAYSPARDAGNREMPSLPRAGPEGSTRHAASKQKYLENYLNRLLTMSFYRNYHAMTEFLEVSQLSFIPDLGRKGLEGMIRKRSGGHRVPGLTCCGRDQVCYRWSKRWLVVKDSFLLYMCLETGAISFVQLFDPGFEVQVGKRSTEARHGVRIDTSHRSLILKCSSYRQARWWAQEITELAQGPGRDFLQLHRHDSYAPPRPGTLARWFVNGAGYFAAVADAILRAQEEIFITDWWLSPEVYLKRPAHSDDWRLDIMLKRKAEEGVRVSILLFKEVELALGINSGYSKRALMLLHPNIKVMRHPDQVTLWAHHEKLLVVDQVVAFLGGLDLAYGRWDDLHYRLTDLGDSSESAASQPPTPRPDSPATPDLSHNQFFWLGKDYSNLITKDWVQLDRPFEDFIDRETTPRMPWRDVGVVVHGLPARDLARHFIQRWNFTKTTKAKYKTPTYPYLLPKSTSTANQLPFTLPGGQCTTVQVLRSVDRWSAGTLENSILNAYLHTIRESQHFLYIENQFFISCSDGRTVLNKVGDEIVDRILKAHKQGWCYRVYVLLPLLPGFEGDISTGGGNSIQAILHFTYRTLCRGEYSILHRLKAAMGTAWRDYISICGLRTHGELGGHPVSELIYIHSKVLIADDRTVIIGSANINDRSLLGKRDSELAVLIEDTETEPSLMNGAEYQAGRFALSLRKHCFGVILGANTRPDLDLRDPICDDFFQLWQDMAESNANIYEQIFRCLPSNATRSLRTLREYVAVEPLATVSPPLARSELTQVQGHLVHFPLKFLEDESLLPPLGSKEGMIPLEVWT
Chain of full-length human PLD1 (Q13393 other isoform, or with tags, fused parts or gaps): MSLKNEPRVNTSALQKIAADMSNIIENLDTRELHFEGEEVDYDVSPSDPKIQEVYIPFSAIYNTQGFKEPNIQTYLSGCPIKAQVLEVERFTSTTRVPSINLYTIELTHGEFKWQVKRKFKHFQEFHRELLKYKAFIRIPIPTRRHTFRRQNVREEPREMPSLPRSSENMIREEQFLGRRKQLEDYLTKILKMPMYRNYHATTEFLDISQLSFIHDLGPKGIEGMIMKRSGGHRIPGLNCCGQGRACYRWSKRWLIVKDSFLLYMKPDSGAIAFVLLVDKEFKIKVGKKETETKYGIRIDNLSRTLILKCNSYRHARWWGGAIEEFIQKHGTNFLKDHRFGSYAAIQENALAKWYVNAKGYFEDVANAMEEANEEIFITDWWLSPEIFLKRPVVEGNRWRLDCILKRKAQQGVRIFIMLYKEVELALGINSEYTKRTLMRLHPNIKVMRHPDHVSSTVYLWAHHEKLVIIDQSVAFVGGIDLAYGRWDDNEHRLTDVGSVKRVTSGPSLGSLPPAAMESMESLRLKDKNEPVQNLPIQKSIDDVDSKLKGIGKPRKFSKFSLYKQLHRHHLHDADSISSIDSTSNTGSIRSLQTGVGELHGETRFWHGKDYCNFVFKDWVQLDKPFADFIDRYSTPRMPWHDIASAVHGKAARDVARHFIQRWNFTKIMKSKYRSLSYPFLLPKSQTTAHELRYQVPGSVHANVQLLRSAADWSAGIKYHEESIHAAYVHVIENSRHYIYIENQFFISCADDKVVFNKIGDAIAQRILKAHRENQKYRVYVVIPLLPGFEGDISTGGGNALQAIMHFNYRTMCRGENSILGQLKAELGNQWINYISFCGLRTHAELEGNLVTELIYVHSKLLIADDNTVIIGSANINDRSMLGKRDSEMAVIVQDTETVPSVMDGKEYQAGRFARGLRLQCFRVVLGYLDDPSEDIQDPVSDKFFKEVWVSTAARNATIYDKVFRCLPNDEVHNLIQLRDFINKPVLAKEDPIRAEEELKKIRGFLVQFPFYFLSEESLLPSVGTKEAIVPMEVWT

SMILES | IC50 (full-length human PLD2; [1]) | IC50 (full-length human PLD1; [2]) | further results
C[C@@H](CN1CCC2(CC1)OC(=O)NN=C2c1ccc(F)cc1)NC(=O)c1cc2cc(F)ccc2[nH]1 [Example 1] | < 10 nM | 33 nM | 
COc1cc(C)c(C2=NNC(=O)O[C@]23CC[C@@H](C[C@H](C)NC(=O)NCc2ccccc2F)CC3)cn1 [Example 234] | 474 nM | 247 nM | 
Cc1cc(C(=O)N[C@@H](C)CN2CCC3(CC2)OC(=O)NN=C3c2cc(Br)c(F)cc2Cl)[nH]n1 [Example 2-016] | < 10 nM | 19 nM | 
Cc1cc(C(=O)N[C@@H](C)CC2CC[C@]3(C[C@@H]2F)OC(=O)NN=C3c2ccc(F)cc2Br)[nH]n1 (stereo partly drawn) [Example 286] | < 10 nM | 14 nM | 
CNC(=O)C(=O)N[C@@H](C)C[C@H]1CC[C@]2(CC1)OC(=O)NN=C2c1ccccc1S(C)(=O)=O [Example 75] | 1990 nM | 1630 nM | 
CNC(=O)C(=O)N[C@@H](C)C[C@H]1CC[C@]2(CC1)OC(=O)NN=C2c1cnc(N2CCC(F)(F)C2)cc1C [Example 248] | < 10 nM | 17 nM | 
COc1cc(C)c(C2=NNC(=O)O[C@]23CC[C@@H](C[C@H](C)NC(=O)c2cc(C)n[nH]2)CC3)cn1 [Example 160] | 17 nM | 26 nM | 
CC(=O)Nc1cccc2[nH]c(C(=O)N[C@@H](C)C[C@H]3CC[C@]4(CC3)OC(=O)NN=C4c3ccc(F)cc3)cc12 [Example 142] | < 10 nM | 22 nM | 
[2H]C([2H])([C@H](C)NC(=O)c1cnn(C)c1)N1CCC2(CC1)OC(=O)NN=C2c1ccc(F)cc1Br [Example 334] | < 10 nM | 26 nM | 
Cc1cc(C(=O)N[C@@H](C)CN2CCC3(CC2)OC(=O)NN=C3c2ccc(F)cc2Cl)[nH]n1 [Example 93] | < 10 nM | 32 nM | 
C[C@@H](C[C@H]1CC[C@]2(CC1)OC(=O)NN=C2c1cc(Cl)ccc1Cl)NC(=O)c1cn2ccccc2n1 [Example 324] | 22 nM | 20 nM | 
COc1cc(C)c(C2=NNC(=O)O[C@]23CC[C@@H](C[C@H](C)NC(=O)N2CCc4cccnc4C2)CC3)cn1 [Example 258] | 249 nM | 186 nM | 
COc1cc(C(=O)N[C@@H](C)C[C@H]2CC[C@]3(CC2)OC(=O)NN=C3c2ccc(F)cc2Br)on1 [Example 69] | < 10 nM | < 10 nM | 
CNC(=O)C(=O)N[C@@H](C)C[C@H]1CC[C@]2(CC1)OC(=O)NN=C2c1cc(OC(F)F)ccc1Br [Example 184] | < 10 nM | < 10 nM | 
CNC(=O)/C=C\C(=O)N[C@@H](C)CN1CCC2(CC1)OC(=O)NN=C2c1cc(C#N)ccc1Br [Example 2-063] | 106 nM | 173 nM | 
CNC(=O)C(=O)N[C@@H](C)C[C@H]1CC[C@]2(CC1)OC(=O)NN=C2c1ccc(F)cc1Br [Example 14] | < 10 nM | 10 nM | 
CNC(=O)C(=O)N[C@@H](C)C[C@]1(C#N)CC[C@@]2(CC1)OC(=O)NN=C2c1ccc(C#N)cc1Br [Example 2-065] | < 10 nM | 21 nM | 
C[C@@H](CN1CCC2(CC1)OC(=O)NN=C2c1cc(C#N)ccc1Br)NC(=O)CCC(F)(F)F [Example 2-023] | 64 nM | 102 nM | 
CNC(=O)C(=O)N[C@@H](C)CN1CCC2(CC1)OC(=O)NN=C2c1ccc(Br)cc1C(F)(F)F [Example 328] | 34 nM | 48 nM | 
C[C@@H](CN1CCC2(CC1)OC(=O)NN=C2c1cc(C#N)ccc1Br)NC(=O)/C=C\C(=O)O [Example 2-047] |  |  | inhibition at 10 µM (full-length human PLD2; 10 μM compound, read-out: PLD2 inhibition rate at 10 μM): 34%; inhibition at 10 µM (full-length human PLD2; [3]): 34%; inhibition at 10 µM (full-length human PLD1; 10 μM compound, read-out: PLD1 inhibition rate at 10 μM): 32%; inhibition at 10 µM (full-length human PLD1; [4]): 32%
CNC(=O)C(=O)N[C@@H](C)C[C@H]1CC[C@]2(CC1)OC(=O)NN=C2c1cc(C(=O)NC(C)(C)C)ccc1Br [Example 299] | < 10 nM | 25 nM | 
CNC(=O)C(=O)N[C@@H](C)C[C@H]1CC[C@]2(CC1)OC(=O)NN=C2c1cnc(N2C[C@H]3C[C@@H]2CO3)cc1C [Example 267] | < 10 nM | 26 nM | 
C[C@H](O)C(=O)N[C@@H](C)C[C@H]1CC[C@]2(CC1)OC(=O)NN=C2c1ccc(F)cc1Br [Example 29] | 1720 nM | 999 nM | 
CNC(=O)C(=O)N[C@@H](C)C[C@H]1CC[C@]2(CC1)OC(=O)NN=C2c1ccc(F)cc1 [Example 6] | 120 nM | 69 nM | 
Cc1cc(Cl)c(C2=NNC(=O)O[C@]23CC[C@@H](C[C@H](C)NC(=O)N2CCn4nccc4C2)CC3)cn1 [Example 276] | < 10 nM | 21 nM | 

SMILES | IC50 (full-length human PLD2; [1]) | IC50 (full-length human PLD1; [2]) | further results
CNC(=O)C(=O)N[C@@H](C)C[C@H]1CC[C@]2(CC1)OC(=O)NN=C2c1cccc(C#N)c1Br [Example 315] | 24 nM | 25 nM | 
Cc1cc(C(=O)N[C@@H](C)C[C@H]2CC[C@]3(CC2)OC(=O)NN=C3c2cnc(C3CC3)cc2Cl)[nH]n1 [Example 266] | < 10 nM | 15 nM | 
C[C@@H](C[C@H]1CC[C@]2(CC1)OC(=O)NN=C2c1ccccc1OC(F)(F)F)NC(=O)c1cc(Cl)no1 [Example 111] | 21 nM | 17 nM | 
CNC(=O)C(=O)N[C@@H](C)C[C@H]1CC[C@]2(CC1)OC(=O)NN=C2c1ccc(C#N)cc1Br [Example 57, N^1—((S)-1-(cis-5-(2-bromo-4-cyanophenyl)-2-oxo-1-oxa-3,4-diazaspiro[5.5]undec-4-en-9-yl)propan-2-yl)-N^2-methyloxamide] | < 10 nM | 16 nM | 
CNC(=O)C(=O)N[C@@H](C)C[C@H]1CC[C@]2(CC1)OC(=O)NN=C2c1ccc(OCC(F)F)cc1Br [Example 85] | < 10 nM | 12 nM | 
CNC(=O)C(=O)N[C@H](C)C[C@H]1CC[C@@]2(CC1)OC(=O)NN=C2c1cc(C#N)ccc1Br [Example 2-150] |  |  | inhibition at 10 µM (full-length human PLD2; read-out: human PLD2 % inhibition at 10 μM): 30%; inhibition at 10 µM (full-length human PLD2; [3]): 30%; inhibition at 10 µM (full-length human PLD1; read-out: human PLD1 % inhibition at 10 μM): 25%; inhibition at 10 µM (full-length human PLD1; [4]): 25%
CNC(=O)C(=O)N[C@@H](C)C[C@H]1CC[C@]2(CC1)OC(=O)NN=C2c1cnc(C2CC2)cc1Cl [Example 265] | < 10 nM | 13 nM | 
CNC(=O)C(=O)N[C@@H](C)C[C@H]1CC[C@]2(CC1)OC(=O)NN=C2c1ccnn1C [Example 68] | 4660 nM | 2030 nM | 
[2H]C([2H])([2H])NC(=O)C(=O)N[C@@H](C)C[C@]1(OC)CC[C@@]2(CC1)OC(=O)NN=C2c1ccc(C#N)cc1Br [Example 2-130] |  |  | IC50 (full-length human PLD2; column 2 of continuation tables 2-12 to 2-14, read-out: human PLD2 enzyme inhibitory activity IC50): < 10 nM; IC50 (full-length human PLD1; column 1 of continuation tables 2-12 to 2-14, read-out: human PLD1 enzyme inhibitory activity IC50): 32 nM
CNC(=O)C(=O)N[C@@H](C)C[C@H]1CC[C@]2(CC1)OC(=O)NN=C2c1cnc(C)cc1C [Example 173] | 10 nM | 29 nM | 
CNC(=O)C(=O)N[C@@H](C)C[C@H]1CC[C@]2(CC1)OC(=O)NN=C2c1cnc(C(C)=O)cc1C [Example 193] | 46 nM | 55 nM | 
C[C@@H](C[C@H]1CC[C@]2(CC1)OC(=O)NN=C2c1cc(C(C)(C)O)ccc1Br)NC(=O)c1cnn(C)c1 [Example 2-027] | < 10 nM | 13 nM | 
CNC(=O)C(=O)N[C@@H](C)C[C@H]1CC[C@]2(CC1)OC(=O)NN=C2c1cnc(N2C[C@@H]3C[C@H]2CO3)cc1Cl [Example 244] | < 10 nM | 19 nM | 
CNC(=O)C(=O)N[C@@H](C)C[C@H]1CC[C@]2(CC1)OC(=O)NN=C2c1cnc(N2CC3(COC3)C2)cc1C [Example 191] | < 10 nM | 38 nM | 
C[C@@H](C[C@H]1CC[C@]2(CC1)OC(=O)NN=C2c1ccc(F)cc1Br)NC(=O)C1CC1c1ccccc1 (single isomer, unassigned) [Example 39] | 24 nM | 93 nM | 
C[C@@H](C[C@H]1CC[C@]2(CC1)OC(=O)NN=C2c1cccc(OC(F)F)c1Br)NC(=O)c1cnn(C)c1 [Example 309] | < 10 nM | 15 nM | 
C[C@@H](C[C@H]1CC[C@]2(CC1)OC(=O)NN=C2c1ccc(Br)cc1)NC(=O)c1cc2ccccc2o1 [Example 50] | 51 nM | 33 nM | 
CNC(=O)C(=O)N[C@@H](C)C[C@H]1CC[C@]2(CC1)OC(=O)NN=C2c1cnc(N2CCC(F)(F)CC2)cc1Cl [Example 274] | < 10 nM | 17 nM | 
C[C@@H](CN1CCC2(CC1)OC(=O)NN=C2c1cc(C#N)ccc1Br)NC(=O)C[C@@H](O)C(F)(F)F [Example 2-002] | 1860 nM | 1250 nM | 
Cc1cc(C(=O)N[C@@H](C)C[C@H]2CC[C@]3(CC2)OC(=O)NN=C3c2cc(OC(F)F)ccc2Br)[nH]n1 [Example 214] | < 10 nM | < 10 nM | 
C[C@@H](C[C@H]1CC[C@]2(CC1)OC(=O)NN=C2c1ccc(S(C)(=O)=O)cc1)NC(=O)c1cc2cc(F)ccc2[nH]1 [Example 8] | 10 nM | 30 nM | 
Cc1cccnc1C1=NNC(=O)O[C@]12CC[C@@H](C[C@H](C)NC(=O)c1cc3ccccc3o1)CC2 [Example 149] | < 10 nM | 12 nM | 
CCCS(=O)(=O)c1ccc(C2=NNC(=O)O[C@]23CC[C@@H](C[C@H](C)NC(=O)C(=O)NC)CC3)c(Cl)c1 [Example 77] | < 10 nM | 26 nM | 
C[C@@H](C[C@H]1CC[C@]2(CC1)OC(=O)NN=C2c1ccc(F)cc1Br)NC(=O)C1CC1c1ccccc1 (single isomer, unassigned) [Example 38] | 88 nM | 35 nM | 
